The values below come from patent US20230183292A1, “IMMUNOMODULATORS” (priority 2020, published 2023).

Like-named read-outs stand apart in the source and are kept apart here. Starred links: 1 amine or outer side, 2 acyl side, 3 side chain; linkers in the order of their positions; H or OH if unused. Positions of bridges follow the written chain, without caps; N, C: chain ends. Non-standard residues stand in square brackets, D forms with d. Residues, ends and D or L forms follow the SMILES beside them. *: point of attachment. Cholyl = C[C@H](CCC(=O)*)[C@H]1CC[C@H]2[C@@H]3[C@H](O)C[C@@H]4C[C@H](O)CC[C@]4(C)[C@H]3C[C@H](O)[C@]12C; Dehydrocholoyl = C[C@H](CCC(=O)*)[C@H]1CC[C@H]2[C@@H]3C(=O)C[C@@H]4CC(=O)CC[C@]4(C)[C@H]3CC(=O)[C@]12C; X18 = CCN(CC)CCCNC(=O)Cn1cc(C[C@H](N[*:1])C(=O)[*:2])c2ccccc21; X35 = O=C(Cn1cc(C[C@H](N[*:1])C(=O)[*:2])c2ccccc21)NCC(F)(F)F; X27 = O=C(Cn1cc(C[C@H](N[*:1])C(=O)[*:2])c2ccccc21)Oc1ccccc1; X4 = O=C(Cn1cc(C[C@H](N[*:1])C(=O)[*:2])c2ccccc21)OCCOCCO; Hyp = O=C(O)[C@@H]1C[C@@H](O)CN1; NMeNle = CCCC[C@H](NC)C(=O)O; NMeA = CN[C@@H](C)C(=O)O; Dab = NCC[C@H](N)C(=O)O; Dap = NC[C@H](N)C(=O)O

In the test the target is T1, PD-1/PD-L1 (Homo sapiens, UniProt Q9NZQ7).
T1 construct: TVMV protease site (C); made in house; host or cells: HEK293T cells
T1 sequence (Q9NZQ7 18-239): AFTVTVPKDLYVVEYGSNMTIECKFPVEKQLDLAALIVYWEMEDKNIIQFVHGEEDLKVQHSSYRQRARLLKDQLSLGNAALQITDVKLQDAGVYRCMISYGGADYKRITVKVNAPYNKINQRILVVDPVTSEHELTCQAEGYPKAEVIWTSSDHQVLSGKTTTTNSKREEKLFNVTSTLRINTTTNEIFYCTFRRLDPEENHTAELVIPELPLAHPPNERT
In words: PD-1/PD-L1 Homogenous Time-Resolved Fluorescence (HTRF) binding assay. Conditions: PD-1-Ig 20 nM. Summed up: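 Inhibitors pre-incubated 15 min with PD-L1-His (10 nM final) in dPBS, 0.1% BSA, 0.05% Tween-20, then 15 min with PD-1-Ig (20 nM final). Eu-cryptate anti-Ig (1 nM) and APC anti-His (20 nM) added, 30 min equilibration; HTRF 665/620 nm ratio. Human ECD proteins from HEK293T.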

[1] abbreviates: PD-L1-His 10 nM, read-out: HTRF IC50.

By IC50 is commonly meant the concentration that inhibits the measured activity by half. With `CCCC[C@H]1C(=O)N(C)[C@@H](CCCC)C(=O)N[C@@H](CC(C)C)C(=O)N[C@H](C(=O)NCC(N)=O)CSCC(=O)N[C@@H](Cc2ccc(O)cc2)C(=O)N(C)[C@@H](C)C(=O)N[C@@H](CC(N)=O)C(=O)N2CCC[C@H]2C(=O)N[C@@H](CNC(=O)CC[C@@H](C)[C@H]2CC[C@H]3[C@@H]4[C@H](O)C[C@@H]5C[C@H](O)CC[C@]5(C)[C@H]4C[C@H](O)[C@]23C)C(=O)N[C@@H](CC(C)C)C(=O)N2C[C@H](O)C[C@H]2C(=O)N[C@@H](Cc2c[nH]c3ccccc23)C(=O)N[C@@H](CCNC(=O)CC[C@@H](C)[C@H]2CC[C@H]3[C@@H]4[C@H](O)C[C@@H]5C[C@H](O)CC[C@]5(C)[C@H]4C[C@H](O)[C@]23C)C(=O)N[C@@H](Cc2cn(CC(=O)NCCCN(CC)CC)c3ccccc23)C(=O)N1C` [Example 2008] ({CH2CO}-Y[NMeA]NP[Dap](Cholyl)L[Hyp]W[Dab](Cholyl)[X18][NMeNle][NMeNle]LCG-NH2; thioether N-14), the IC50 under setting [1] stood at 95 nM.

With `CCCC[C@H]1C(=O)N(C)[C@@H](CCCC)C(=O)N[C@@H](CC(C)C)C(=O)N[C@H](C(=O)NCC(N)=O)CSCC(=O)N[C@@H](Cc2ccc(O)cc2)C(=O)N(C)[C@@H](C)C(=O)N[C@@H](CC(N)=O)C(=O)N2CCC[C@H]2CN[C@@H](CNC(=O)CC[C@@H](C)[C@H]2CC[C@H]3[C@@H]4[C@H](O)C[C@@H]5C[C@H](O)CC[C@]5(C)[C@H]4C[C@H](O)[C@]23C)C(=O)N[C@@H](CC(C)C)C(=O)N2C[C@H](O)C[C@H]2C(=O)N[C@@H](Cc2c[nH]c3ccccc23)C(=O)N[C@@H](CCNC(=O)CC[C@@H](C)[C@H]2CC[C@H]3[C@@H]4[C@H](O)C[C@@H]5C[C@H](O)CC[C@]5(C)[C@H]4C[C@H](O)[C@]23C)C(=O)N[C@@H](Cc2cn(CC(=O)NC3CC3)c3ccccc23)C(=O)N1C` [Example 2009], the IC50 under setting [1] is 2900 nM. For `CCCC[C@H]1C(=O)N(C)[C@@H](CCCC)C(=O)N[C@@H](CC(C)C)C(=O)N[C@H](C(=O)NCC(N)=O)CSCC(=O)N[C@@H](Cc2ccc(O)cc2)C(=O)N(C)[C@@H](C)C(=O)N[C@@H](CC(N)=O)C(=O)N2CCC[C@H]2CN[C@@H](CNC(=O)CC[C@@H](C)[C@H]2CC[C@H]3[C@@H]4[C@H](O)C[C@@H]5C[C@H](O)CC[C@]5(C)[C@H]4C[C@H](O)[C@]23C)C(=O)N[C@@H](CC(C)C)C(=O)N2C[C@H](O)C[C@H]2C(=O)N[C@@H](Cc2c[nH]c3ccccc23)C(=O)N[C@@H](CCNC(=O)CC[C@@H](C)[C@H]2CC[C@H]3[C@@H]4[C@H](O)C[C@@H]5C[C@H](O)CC[C@]5(C)[C@H]4C[C@H](O)[C@]23C)C(=O)N[C@@H](Cc2cn(CC(=O)NCC(F)(F)F)c3ccccc23)C(=O)N1C` [Example 2010], the IC50 under setting [1] came out at 4700 nM. Same read-out and setting: for `CCCC[C@H]1C(=O)N(C)[C@@H](CCCC)C(=O)N[C@@H](CC(C)C)C(=O)N[C@H](C(=O)NCC(N)=O)CSCC(=O)N[C@@H](Cc2ccc(O)cc2)C(=O)N(C)[C@@H](C)C(=O)N[C@@H](CC(N)=O)C(=O)N2CCC[C@H]2CN[C@@H](CNC(=O)CC[C@@H](C)[C@H]2CC[C@H]3[C@@H]4C(=O)C[C@@H]5CC(=O)CC[C@]5(C)[C@H]4CC(=O)[C@]23C)C(=O)N[C@@H](CC(C)C)C(=O)N2C[C@H](O)C[C@H]2C(=O)N[C@@H](Cc2c[nH]c3ccccc23)C(=O)N[C@@H](CCNC(=O)CC[C@@H](C)[C@H]2CC[C@H]3[C@@H]4C(=O)C[C@@H]5CC(=O)CC[C@]5(C)[C@H]4CC(=O)[C@]23C)C(=O)N[C@@H](Cc2cn(CC(=O)OC3CC3)c3ccccc23)C(=O)N1C` [Example 2011] the value was 35 nM; for `CCCC[C@H]1C(=O)N(C)[C@@H](CCCC)C(=O)N[C@@H](CC(C)C)C(=O)N[C@H](C(=O)NCC(N)=O)CSCC(=O)N[C@@H](Cc2ccc(O)cc2)C(=O)N(C)[C@@H](C)C(=O)N[C@@H](CC(N)=O)C(=O)N2CCC[C@H]2CN[C@@H](CNC(=O)CC[C@@H](C)[C@H]2CC[C@H]3[C@@H]4C(=O)C[C@@H]5CC(=O)CC[C@]5(C)[C@H]4CC(=O)[C@]23C)C(=O)N[C@@H](CC(C)C)C(=O)N2C[C@H](O)C[C@H]2C(=O)N[C@@H](Cc2c[nH]c3ccccc23)C(=O)N[C@@H](CCNC(=O)CC[C@@H](C)[C@H]2CC[C@H]3[C@@H]4C(=O)C[C@@H]5CC(=O)CC[C@]5(C)[C@H]4CC(=O)[C@]23C)C(=O)N[C@@H](Cc2cn(CC(=O)OC3CC3)c3ccccc23)C(=O)N1C` [Example 2012], 27 nM. As to `CCCCOC(=O)Cn1cc(C[C@@H]2NC(=O)[C@H](CCNC(=O)CC[C@@H](C)[C@H]3CC[C@H]4[C@@H]5C(=O)C[C@@H]6CC(=O)CC[C@]6(C)[C@H]5CC(=O)[C@]34C)NC(=O)[C@H](Cc3c[nH]c4ccccc34)NC(=O)[C@@H]3C[C@@H](O)CN3C(=O)[C@H](CC(C)C)NC(=O)[C@H](CNC(=O)CC[C@@H](C)[C@H]3CC[C@H]4[C@@H]5C(=O)C[C@@H]6CC(=O)CC[C@]6(C)[C@H]5CC(=O)[C@]34C)NC[C@@H]3CCCN3C(=O)[C@H](CC(N)=O)NC(=O)[C@H](C)N(C)C(=O)[C@H](Cc3ccc(O)cc3)NC(=O)CSC[C@@H](C(=O)NCC(N)=O)NC(=O)[C@H](CC(C)C)NC(=O)[C@H](CCCC)N(C)C(=O)[C@H](CCCC)N(C)C2=O)c2ccccc21` [Example 2013], the 50% inhibitory concentration (IC50) under setting [1] was determined as 41 nM. In the case of `CCCCCCOC(=O)Cn1cc(C[C@@H]2NC(=O)[C@H](CCNC(=O)CC[C@@H](C)[C@H]3CC[C@H]4[C@@H]5C(=O)C[C@@H]6CC(=O)CC[C@]6(C)[C@H]5CC(=O)[C@]34C)NC(=O)[C@H](Cc3c[nH]c4ccccc34)NC(=O)[C@@H]3C[C@@H](O)CN3C(=O)[C@H](CC(C)C)NC(=O)[C@H](CNC(=O)CC[C@@H](C)[C@H]3CC[C@H]4[C@@H]5C(=O)C[C@@H]6CC(=O)CC[C@]6(C)[C@H]5CC(=O)[C@]34C)NC[C@@H]3CCCN3C(=O)[C@H](CC(N)=O)NC(=O)[C@H](C)N(C)C(=O)[C@H](Cc3ccc(O)cc3)NC(=O)CSC[C@@H](C(=O)NCC(N)=O)NC(=O)[C@H](CC(C)C)NC(=O)[C@H](CCCC)N(C)C(=O)[C@H](CCCC)N(C)C2=O)c2ccccc21` [Example 2014], the IC50 under setting [1] is 4600 nM. Under “HTRF IC50, PD-L1-His 10 nM”, `CCCC[C@H]1C(=O)N(C)[C@@H](CCCC)C(=O)N[C@@H](CC(C)C)C(=O)N[C@H](C(=O)NCC(N)=O)CSCC(=O)N[C@@H](Cc2ccc(O)cc2)C(=O)N(C)[C@@H](C)C(=O)N[C@@H](CC(N)=O)C(=O)N2CCC[C@H]2C(=O)N[C@@H](CNC(=O)CC[C@@H](C)[C@H]2CC[C@H]3[C@@H]4C(=O)C[C@@H]5CC(=O)CC[C@]5(C)[C@H]4CC(=O)[C@]23C)C(=O)N[C@@H](CC(C)C)C(=O)N2C[C@H](O)C[C@H]2C(=O)N[C@@H](Cc2c[nH]c3ccccc23)C(=O)N[C@@H](CCNC(=O)CC[C@@H](C)[C@H]2CC[C@H]3[C@@H]4C(=O)C[C@@H]5CC(=O)CC[C@]5(C)[C@H]4CC(=O)[C@]23C)C(=O)N[C@@H](Cc2cn(CC(=O)Oc3ccccc3)c3ccccc23)C(=O)N1C` [Example 2015] ({CH2CO}-Y[NMeA]NP[Dap](Dehydrocholoyl)L[Hyp]W[Dab](Dehydrocholoyl)[X27][NMeNle][NMeNle]LCG-NH2; thioether N-14) returned an IC50 of 20 nM. For `CCCC[C@H]1C(=O)N(C)[C@@H](CCCC)C(=O)N[C@@H](CC(C)C)C(=O)N[C@H](C(=O)NCC(N)=O)CSCC(=O)N[C@@H](Cc2ccc(O)cc2)C(=O)N(C)[C@@H](C)C(=O)N[C@@H](CC(N)=O)C(=O)N2CCC[C@H]2C(=O)N[C@@H](CNC(=O)CC[C@@H](C)[C@H]2CC[C@H]3[C@@H]4C(=O)C[C@@H]5CC(=O)CC[C@]5(C)[C@H]4CC(=O)[C@]23C)C(=O)N[C@@H](CC(C)C)C(=O)N2C[C@H](O)C[C@H]2C(=O)N[C@@H](Cc2c[nH]c3ccccc23)C(=O)N[C@@H](CCNC(=O)CC[C@@H](C)[C@H]2CC[C@H]3[C@@H]4C(=O)C[C@@H]5CC(=O)CC[C@]5(C)[C@H]4CC(=O)[C@]23C)C(=O)N[C@@H](Cc2cn(CC(=O)OCCOCCO)c3ccccc23)C(=O)N1C` [Example 2016] ({CH2CO}-Y[NMeA]NP[Dap](Dehydrocholoyl)L[Hyp]W[Dab](Dehydrocholoyl)[X4][NMeNle][NMeNle]LCG-NH2; thioether N-14), the IC50 under setting [1] was 15 nM. Regarding `CCCC[C@H]1C(=O)N(C)[C@@H](CCCC)C(=O)N[C@@H](CC(C)C)C(=O)N[C@H](C(=O)NCC(N)=O)CSCC(=O)N[C@@H](Cc2ccc(O)cc2)C(=O)N(C)[C@@H](C)C(=O)N[C@@H](CC(N)=O)C(=O)N2CCC[C@H]2C(=O)N[C@@H](CNC(=O)CC[C@@H](C)[C@H]2CC[C@H]3[C@@H]4C(=O)C[C@@H]5CC(=O)CC[C@]5(C)[C@H]4CC(=O)[C@]23C)C(=O)N[C@@H](CC(C)C)C(=O)N2C[C@H](O)C[C@H]2C(=O)N[C@@H](Cc2c[nH]c3ccccc23)C(=O)N[C@@H](CCNC(=O)CC[C@@H](C)[C@H]2CC[C@H]3[C@@H]4C(=O)C[C@@H]5CC(=O)CC[C@]5(C)[C@H]4CC(=O)[C@]23C)C(=O)N[C@@H](Cc2cn(CC(=O)NCC(F)(F)F)c3ccccc23)C(=O)N1C` [Example 2018] ({CH2CO}-Y[NMeA]NP[Dap](Dehydrocholoyl)L[Hyp]W[Dab](Dehydrocholoyl)[X35][NMeNle][NMeNle]LCG-NH2; thioether N-14), the IC50 under setting [1] was determined as 17 nM.
